In patent US20210277003A1, “OGA INHIBITOR COMPOUNDS” (Janssen Pharmaceutica NV, priority 2018, published 2021):

Key:
[1] = system: OGA in HEK293 cells inducible for P301L mutant human Tau (isoform 2N4R); experiment: OGA cellular assay: immunocytochemical detection of O-GlcNAcylated proteins (CTD110.6 antibody); type: cell-based; details: Homo sapiens, HEK293, 6 h, 6 hours incubation; for Emax: maximum = Thiamet G 200 uM; for EC50: read-out: Cellular hOGA, pEC50 (converted)
Protocol: HEK293 cells inducible for P301L mutant human Tau (isoform 2N4R) were established at Janssen. Thiamet-G was used for both plate validation (high control) and as reference compound (reference EC50 assay validation). OGA inhibition is evaluated through the immunocytochemical (ICC) detection of O-GlcNAcylated proteins by the use of a monoclonal antibody (CTD110.6; Cell Signaling, #9875) detecting 0-GlcNAcylated residues as previously described (Dorfmueller et al. 2010 Chemistry & biology, 17:1250). Inhibition of OGA will result in an increase of O-GlcNAcylated protein levels resulting in an increased signal in the experiment. Cell nuclei are stained with Hoechst to give a cell culture quality control and a rough estimate of immediate compounds toxicity, if any. ICC pictures are imaged with a Perkin Elmer Opera Phenix plate microscope and quantified with the provided software Perkin Elmer Harmony 4.1.
Cells were propagated in DMEM high Glucose (Sigma, #D5796) following standard procedures. 2 days before the cell assay cells are split, counted and seeded in Poly-D-Lysine (PDL) coated 96-wells (Greiner, #655946) plate at a cell density of 12,000 cells per cm^2 (4,000 cells per well) in 100p of Assay Medium (Low Glucose medium is used to reduce basal levels of GlcNAcylation) (Park et al. 2014 The Journal of biological chemistry 289:13519). At the day of compound test medium from assay plates was removed and replenished with 90 µl of fresh Assay Medium. 10p of compounds at a 10 fold final concentration were added to the wells. Plates were centrifuged shortly before incubation in the cell incubator for 6 hours. DMSO concentration was set to 0.2%. Medium is discarded by applying vacuum. For staining of cells medium was removed and cells washed once with 100 μl D-PBS (Sigma, #D8537). From next step onwards unless other stated assay volume was always 50p and incubation was performed without agitation and at room temperature. Cells were fixed in 50 μl of a 4% paraformaldehyde (PFA, Alpha aesar, #043368) PBS solution for 15 minutes at room temperature. […] Before analysis samples were washed 2 times manually for 5 minutes in ICC base buffer.
Imaging is performed using Perkin Elmer Phenix Opera using a water 20× objective and recording 9 fields per well. Intensity readout at 488 nm is used as a measure of O-GlcNAcylation level of total proteins in wells. To assess potential toxicity of compounds nuclei were counted using the Hoechst staining. IC50-values are calculated using parametric non-linear regression model fitting. As a maximum inhibition Thiamet G at a 200 uM concentration is present on each plate. In addition, a concentration response of Thiamet G is calculated on each plate.

[2] = molecular target: T1, recombinant human Meningioma Expressed Antigen 5 (MGEA5), also referred to as O-GlcNAcase (OGA) (Homo sapiens, UniProt O60502); experiment: OGA biochemical assay: inhibition of hydrolysis of fluorescein mono-ß-D-N-Acetyl-Glucosamine (FM-GlcNAc), fluorescence readout; details: FM-GlcNAc substrate; for Emax: read-out: Enzymatic Emax (%); for IC50: read-out: Enzymatic hOGA, pIC50 (converted)
T1 construct: Full length OGA enzyme was purchased at OnGene (cat #TP322411); purchased OnGene (so in the source)
T1 sequence (O60502 1-916): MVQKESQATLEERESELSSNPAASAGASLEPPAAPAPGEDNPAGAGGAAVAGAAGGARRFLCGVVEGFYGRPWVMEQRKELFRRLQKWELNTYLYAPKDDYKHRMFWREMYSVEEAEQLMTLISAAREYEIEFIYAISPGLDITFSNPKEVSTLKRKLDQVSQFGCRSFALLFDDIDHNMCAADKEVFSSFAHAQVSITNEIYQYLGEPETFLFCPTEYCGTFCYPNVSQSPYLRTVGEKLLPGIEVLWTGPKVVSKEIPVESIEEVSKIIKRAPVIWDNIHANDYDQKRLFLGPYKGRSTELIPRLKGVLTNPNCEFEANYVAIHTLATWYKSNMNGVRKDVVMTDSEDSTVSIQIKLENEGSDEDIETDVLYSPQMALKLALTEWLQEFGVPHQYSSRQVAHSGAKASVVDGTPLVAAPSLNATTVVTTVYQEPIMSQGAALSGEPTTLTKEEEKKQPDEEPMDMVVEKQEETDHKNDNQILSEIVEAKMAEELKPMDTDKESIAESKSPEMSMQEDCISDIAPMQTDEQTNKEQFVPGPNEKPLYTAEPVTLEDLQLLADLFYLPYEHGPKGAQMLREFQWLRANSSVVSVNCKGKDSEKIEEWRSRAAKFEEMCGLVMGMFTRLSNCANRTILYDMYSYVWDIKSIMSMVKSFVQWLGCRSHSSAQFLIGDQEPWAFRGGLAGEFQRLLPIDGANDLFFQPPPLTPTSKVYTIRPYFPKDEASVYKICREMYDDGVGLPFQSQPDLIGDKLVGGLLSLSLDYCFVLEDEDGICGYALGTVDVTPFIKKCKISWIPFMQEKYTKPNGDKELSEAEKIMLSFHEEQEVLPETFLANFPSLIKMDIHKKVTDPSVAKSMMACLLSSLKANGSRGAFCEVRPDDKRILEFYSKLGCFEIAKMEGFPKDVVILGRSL
Description: The assay is based on the inhibition of the hydrolysis of fluorescein mono-ß-D-N-Acetyl-Glucosamine (FM-GlcNAc) (Mariappa et al. 2015, Biochem J 470:255) by the recombinant human Meningioma Expressed Antigen 5 (MGEA5), also referred to as O-GlcNAcase (OGA). The hydrolysis FM-GlcNAc (Marker Gene technologies, cat #M1485) results in the formation of ß-D-N-glucosamineacetate and fluorescein. The fluorescence of the latter can be measured at excitation wavelength 485 nm and emission wavelength 538 nm. An increase in enzyme activity results in an increase in fluorescence signal. Full length OGA enzyme was purchased at OnGene (cat #TP322411). The enzyme was stored in 25 mM Tris.HCl, pH 7.3, 100 mM glycine, 10% glycerol at −20° C. Thiamet G and GlcNAcStatin were tested as reference compounds (Yuzwa et al. 2008 Nature Chemical Biology 4:483; Yuzwa et al. 2012 Nature Chemical Biology 8:393). The assay was performed in 200 mM Citrate/phosphate buffer supplemented with 0.005% Tween-20. 35.6 g Na2HPO4 2 H2O (Sigma, #C0759) were dissolved in 1 L water to obtain a 200 mM solution. 19.2 g citric acid (Merck, #1.06580) was dissolved in 1 L water to obtain a 100 mM solution. pH of the sodium phosphate solution was adjusted with the citric acid solution to 7.2. The buffer to stop the reaction consists of a 500 mM Carbonate buffer, pH 11.0. 734 mg FM-GlcNAc were dissolved in 5.48 mL DMSO to obtain a 250 mM solution and was stored at −20° C. OGA was used at a 2 nM concentration and FM-GlcNAc at a 100 uM final concentration. Dilutions were prepared in assay buffer. 50 nl of a compound dissolved in DMSO was dispensed on Black Proxiplate™ 384 Plus Assay plates (Perkin Elmer, #6008269) and 3 μl fl-OGA enzyme mix added subsequently. Plates were pre-incubated for 60 min at room temperature and then 2 μl FM-GlcNAc substrate mix added. […] Plates were briefly centrifuged for 1 min at 1000 rpm and incubate at room temperature for 6 h. To stop the reaction 5 μl STOP buffer were added and plates centrifuge again 1 min at 1000 rpm. Fluorescence was quantified in the Thermo Scientific Fluoroskan Ascent or the PerkinElmer EnVision with excitation wavelength 485 nm and emission wavelength 538 nm. For analysis a best-fit curve is fitted by a minimum sum of squares method. From this an IC50 value and Hill coefficient was obtained. High control (no inhibitor) and low control (saturating concentrations of standard inhibitor) were used to define the minimum and maximum values.

Compound | Enzymatic hOGA; pIC50 [2] | Emax [2] [%] | IC50 [2] [nM] | Enzymatic Emax (%) [2] [%] | Emax [1] [%] | EC50 [1] [nM]
Clc1cccc(Cl)c1Nc1nccc2c1ccn2Cc1ccon1 [Compound 172] | – | 102 | 3.39 | – | 80.8 | 70.8
Clc1cccc(Cl)c1Nc1nccc2c1ccn2CC1COC1 [Compound 35] | – | 100 | 148 | – | 20 | > 1000
Cc1cncc(Cl)c1Nc1nccc2c1ccn2CC1CC1 [Compound 110] | 7.54 | 100 | – | – | 48 | 363
Clc1cccc(Cl)c1Nc1nccc2c1ccn2CCC1COC1 [Compound 122] | 7.72 | – | – | 103.22 | 84.1 | 263
Cc1ccnc(C)c1Nc1nccc2c1ccn2CC1CCCO1 (centres unmarked) [Compound 137] | 7.14 | 99.1 | – | – | 60.4 | 513
CCCCn1ccc2c(Nc3c(C)cc4c(c3C)OCCO4)nccc21 [Compound 53] | – | 105 | 1.86 | – | 82 | 20.4
CCCCn1ccc2c(Nc3c(Cl)cnc4c3OCCO4)nccc21 [Compound 18] | 7.46 | 102 | – | – | 62 | 575
FCCCCn1ccc2c(Nc3c(Cl)cccc3Cl)nccc21 [Compound 7] | 7.98 | 103 | – | – | 84 | 214
CCCCn1ccc2c(Nc3c(F)cncc3CC)nccc21 [Compound 44] | – | 100 | 35.5 | – | 69 | 302
Cc1cc(Cn2ccc3c(Nc4c(C)ccnc4C)nccc32)no1 [Compound 133] | 8.16 | 101 | – | – | 76.1 | 87.1
Cc1ncnc(C(C)C)c1Nc1nccc2c1ccn2CCC1CC1 [Compound 193] | – | 102 | 6.31 | – | 89.7 | 112
Cc1ccnc(OC(F)F)c1Nc1nccc2c1ccn2CC1CCO1 (centres unmarked) [Compound 119] | 8 | 105 | – | – | 80.3 | 102
Cc1cccc(S(C)(=O)=O)c1Nc1nccc2c1ccn2CCC1CC1 [Compound 195] | – | 102 | 1.35 | – | 95.3 | 25.1
CCCCn1ccc2c(Nc3c(Cl)cc4c(c3C)OCCO4)nccc21 [Compound 76] | – | 101 | 2.95 | – | 100 | 23.4
Clc1cccc(Cl)c1Nc1nccc2c1ccn2CC1CCO1 (centres unmarked) [Compound 159] | 8.87 | 104 | – | – | 84 | 20.4
N#CCCCn1ccc2c(Nc3c(Cl)cccc3Cl)nccc21 [Compound 50] | – | 102 | 12.6 | – | 78 | 302
CCCCn1ccc2c(Nc3c(C)cc4c(ncn4C)c3C)nccc21 [Compound 77] | – | 99 | 4.79 | – | 83 | 7.41

Second part, led by results:

Enzymatic hOGA; pIC50 [2] | Emax [2] [%] | IC50 [2] [nM] | Enzymatic Emax (%) [2] [%] | Compound | Emax [1] [%] | EC50 [1] [nM]
8.58 | 101 | – | – | Cc1cc(C(F)(F)F)cc(Cl)c1Nc1nccc2c1ccn2CC(C)(F)F [Compound 128] | 90.3 | 12.9
8.64 | 98.8 | – | – | Cc1cc(C)c(Nc2nccc3c2ccn3CC(C)(F)F)c(C)c1 [Compound 135] | 82.2 | 9.33
8.61 | 100 | – | – | Cc1cc(F)cc(Cl)c1Nc1nccc2c1ccn2CC(C)(F)F [Compound 151] | 102 | 10.2
– | 96 | 912 | – | CC(C)(C#N)Cn1ccc2c(Nc3c(Cl)cc(F)cc3Cl)nccc21 [Compound 83] | 8 | > 1000
– | 101 | 2.69 | – | CCCCn1ccc2c(Nc3c(C)cc(F)cc3C)nccc21 [Compound 73] | 93 | 53.7
8.04 | 102 | – | – | CC[C@H](O)Cn1ccc2c(Nc3c(C)cc(C(F)(F)F)cc3C)nccc21 [Compound 124b] | 76.7 | 27.5
8.63 | 104 | – | – | Cc1cc(F)cc(C(C)C)c1Nc1nccc2c1ccn2CC1CCO1 (centres unmarked) [Compound 163] | 90.3 | 4.17
– | 104 | 2.04 | – | CCCCn1ccc2c(Nc3c(C)cc(-c4cnn(C)c4)cc3C)nccc21 [Compound 54] | 82 | 20.9
7.1 | 102 | – | – | Cc1ccnc(C)c1Nc1nccc2c1ccn2CCC(F)F [Compound 96] | 60 | 513
